From patent US20240024291A1, “Uses of Dihydroorotate Dehydrogenase Inhibitors” (University of Maryland, Baltimore, priority 2022, published 2024)

How the values were obtained:
Type in all cases: cell-based, human
[1] = test system: EGFRviii expressing 08-387 and 913 glioblastoma cells; assay: Gemcitabine sensitization assay (Alamar blue); conditions: varying dosages of gemcitabine and 100 nM of compound 1
Experimental: Ten thousand 08-387 or 913 glioblastoma cells per well were seeded in a 96 well plate. […] Post 72 hr of treatment, cell viability was calculated on Alamar blue absorbance reading.
To further evaluate the potential role of EGFR in compound 1 resistance, the 913 and 08-387 neurosphere lines were transduced with lentiviruses encoding EGFRvIll or GFP (as control) and these neurospheres were challenged with a relatively high dose of 1 mM compound 1.

[2] = test system: 913 PIP-FUCCI reporter cells; assay: PIP-FUCCI in vitro cell cycle assay; conditions: for percentage of cells in the S phase: 48 hours (DMSO 20%)
Experimental: To monitor cell cycle progression, 913 glioblastoma neurosphere-derived cells expressing pLenti-PGK-Neo-PIP-FUCCI were first cloned. pLenti-PGK-Neo-PIP-FUCCI was from Jean Cook (Addgene plasmid #118616; n2t.net/addgene:118616; RRID:Addgene_118616) (52). Cells were then treated with either 0, 10 nM, or 100 nM compound 1 for 48 hours, stained with 1 mg/mL Hoechst for 2 hours, and visualized by direct fluorescence microscopy. A twenty-four-hour treatment with […] of the DNA replication inhibitor Aphidicolin was used as a positive control for S-phase arrest. A collection of five images per well, each set containing at least 10,000 cells, was captured for each treatment. Each treatment was performed in technical quadruplicates, and each experiment was repeated twice on different days. Images were acquired using Cytation 5 plate reader (BioTek, Winooski, VT, USA) and scored using Gen5 software. Cell cycle phases were determined by x/y plot of mVenus and mCherry intensities per nucleus and gating boundaries on the Aphidicolin control.
It has been reported that depletion of pyrimidine nucleotides leads to incomplete DNA replication and elicits a stress response that blocks cell cycle progression. […] The original design was developed in 2008 by Miyawaki and colleagues (51).

[3] = test system: 08-387 glioblastoma neurosphere line; assay: CellTiter-Glo in vitro proliferation assay; conditions: for IC50: Homo sapiens
Experimental: (§1) A Biospherix X3, hypoxic incubation system, was maintained at 37° C., 1% 02, 5% CO2, and 94% N2 (Biospherix, Ltd—Parish, NY) to conduct in vitro hypoxic experiments. Cells were plated, then incubated in normoxia overnight before transferring the culture dishes to hypoxia for the duration indicated in the main text.
(§2) […] Cell Titer-Glo® Luminescent Cell Viability Assay (Promega, Madison, WI, USA) was performed 72 hours after treatment. Luminescence was determined using a Cytation 5 reader and Gen5 software package (BioTek, Winooski, VT, USA).
(§3) The compound's efficacy was examined against a collection of genetically diverse patient-derived GSC lines in vitro. The IC50 profiles of compound 1 in the seven GSC lines tested were established using the CellTiter-Glo® reagent and calculated with GraphPad software.

[4] = test system: 913 glioblastoma neurosphere line; assay: CellTiter-Glo in vitro proliferation assay
Experimental: as §1, §2, §3

[5] = test system: 3691 glioblastoma neurosphere line; assay: gH2AX foci immunofluorescence (DNA damage); conditions: IC50 dose
Experimental: (§4) The 913, 3691, 08-387, and 1079 glioblastoma neurosphere-derived cells (1×10^4) were treated with DMSO (control) or IC50 concentration of compound 1 and cultured in either normoxia or hypoxia for 48 hours. Cells were spun with a Milles Scientific Cyto-Tek Model 4325 cytocentrifuge slide centrifuge onto Superfrost slides (VWR-48311-703) at 1500 rpm for 5 minutes. Slides were rinsed briefly with Hanks Balanced Salt Solution (HBSS), fixed in 4% paraformaldehyde in PBS, and rinsed with HBSS twice to remove any residual fixative. Cells were permeabilized with PBS containing 0.1% Triton-X100 (PBST) for 15 minutes, then blocked for 1 hour with PBST with 5% BSA. The slides were incubated overnight at 4° C. with Phospho-H2AX antibody (see above), diluted 1:250 in PBST containing 5% BSA. Slides were rinsed three times with HBSS, then incubated for one hour at room temperature with donkey anti-mouse, Alexa488-conjugated, secondary antibody diluted 1:500 in PBST containing 5% BSA (see above). Cell nuclei were counterstained with DAPI (150 nM), and the slides were cover-slipped with Prolong antifade mounting media (Molecular Probes #P36961). Using a 40X objective, at least ten random high-power fields, per condition, were captured with a Nikon W-1 Spinning Disk confocal microscope through the University of Maryland Baltimore CIBR confocal facility. The number of yH2AX-positive foci per cell was counted using ImageJ (unige.ch/medecine/bioimaging/files/3714/1208/5964/CellCounting.pdf). Individual cells with ten or more foci were considered positive for significant DNA damage. At least 300 cells were analyzed in each sample.
(§5) Reduced de novo pyrimidine synthesis mediated by MCT4-depletion promoted an accumulation of DNA damage (29). To test and quantify the magnitude of compound 1 effect on DNA damage, the four compound 1 responsive GBM neurosphere lines 913, 3691, 08-387, and 1079 were cultured in normoxia (21% oxygen) and hypoxia (1% oxygen) with a model-specific IC50 dose of compound 1 for 48 hours followed by immunocytochemical analysis of the DNA-damage marker g-H2AX. Table 1 is a summary of IC50 (nM or mM) values established for the seven glioblastoma neurosphere lines

[6] = test system: 08-387 glioblastoma neurosphere line; assay: gH2AX foci immunofluorescence (DNA damage); conditions: IC50 dose
Experimental: as §4, §5

[7] = test system: 1079 glioblastoma neurosphere line; assay: gH2AX foci immunofluorescence (DNA damage); conditions: IC50 dose
Experimental: as §4, §5

[8] = test system: 913 glioblastoma neurosphere line; assay: gH2AX foci immunofluorescence (DNA damage); conditions: IC50 dose
Experimental: as §4, §5

**Q.** What does the source list for `CCn1c(CO)nn(-c2cc(O[C@@H](C)C(F)(F)F)c(C(=O)Nc3c(F)cccc3Cl)cc2F)c1=O` [Compound 1, N-(2-chloro-6-fluorophenyl)-4-[4-ethyl-4,5-dihydro-3-(hydroxymethyl)-5-oxo-1H-1,2,4-triazol-1-yl]-5-fluoro-2-[(1S)-2,2,2-trifluoro-1-methylethoxy]-benzamide]?
**A.** sensitization to gemcitabine [1]: sensitizes; percentage of cells in the S phase ([2]; 10 nM): 70%; percentage of cells in the S phase ([2]; 100 nM): 64%; cell cycle effects with uridine supplementation ([2]; uridine supplementation): completely blocked; effect of uridine on growth inhibition ([3]; 08-387, with 100 mM uridine, all concentrations tested): entirely rescued; IC50 ([3]; 08-387, uridine rescue experiment, compound 1 alone, normoxia and hypoxia): 1 to 10 nM; IC50 ([3]; 72 h, 08-387, hypoxia): 11.4 nM; IC50 ([3]; 72 h, 08-387, normoxia): 4.7 nM; effect of uridine on growth inhibition ([4]; 913, with 100 mM uridine, all concentrations tested): entirely rescued; IC50 ([4]; Homo sapiens, 913, uridine rescue experiment, compound 1 alone, normoxia and hypoxia): 1 to 10 nM; IC50 ([4]; Homo sapiens, 72 h, 913, hypoxia (1% oxygen), 72 hours): 6.7 nM; IC50 ([4]; Homo sapiens, 72 h, 913, normoxia (21% oxygen), 72 hours): 15.3 nM; g-H2AX positivity ([5]; 3691, hypoxia, 48 hours (control 11.3%)): 44.2%; g-H2AX positivity ([5]; 3691, normoxia, 48 hours (control 9%)): 46%; nuclei with multiple gH2AX-positive foci ([6]; 08-387, hypoxia, 48 hours (control 13.6%)): 32%; nuclei with multiple gH2AX-positive foci ([6]; 08-387, normoxia, 48 hours (control 11.6%)): 30%; g-H2AX positivity ([7]; 1079, hypoxia, 48 hours (control 16.2%)): 38.4%; g-H2AX positivity ([7]; 1079, normoxia, 48 hours (control 14.8%)): 32.4%; nuclei with multiple gH2AX-positive foci ([8]; 913, hypoxia, 48 hours (control 2.3%)): 23%; nuclei with multiple gH2AX-positive foci ([8]; 913, normoxia, 48 hours (control 11%)): 89%
